Test results: patent publication US20130143825A1, “COMPOUNDS FOR USE IN THE TREATMENT OF DISEASES BASED ON THE EXPRESSION OF TOXIC TRANSCRIPTS” (UNIVERSITAT DE VALENCIA, priority 2010, published 2013)
Non-standard residues stand in square brackets, D forms with d. No end group written: not given here.

Key:
[1] = test system: MBNL1 binding to the CUG repeats; details: in vitro; cited from earlier work
FAM-(CUG)23 RNA = test: Fluorescence gel retardation assay with FAM-(CUG)23; assay type: binding; details: peptide 2.5 mM, RNA 60 nM
From the text: The changes on the RNA caused by p10 in the FP assay are small, probably due to the low molecular weight of the molecule (less than 900 Da). For this reason, it was decided to supplement the study with gel retardation experiments. These assays are based on the differences in electrophoretic mobility between stable protein-nucleic acid complexes and their components separately. Since the FAM-(CUG)23 RNA was available, it was decided to prepare a fluorescence gel retardation assay. After determining the optimal quantity of RNA for detection (60 nM; FIG. 21A), the binding between the latter and MblZF was studied. Said binding caused both a decrease in the intensity of the band corresponding to the free RNA in the gel and the appearance of a signal in the interior of the gel wells (bound RNA).
In order to determine whether p10 could bind to CUG RNA molecules, it was decided to perform a similar gel retardation experiment between the peptide and FAM-(CUG)23. p10 bound to the RNA, with part of the complex being retained in the well, as described for MblZF. […] This affinity decreased upon decreasing the size of the repeats (FAM-(CUG)4, FIG. 24C). […] This could be due either to a synergic effect between the protein and the peptide or to an additive effect if both should bind to different RNA sites.
In order to study the specificity of the binding observed between p10 and the CUG repeats, two experiments were performed. In the first place, the five hexapeptides generated during the alanine scanning were assayed. […] In the second place, we studied the effect of p10 on other RNA and DNA sequences, both double-stranded and single-stranded, fluorescently labelled with carboxyfluorescein (FAM) (FIG. 25C).

[2] = test system: 103Y-Gal4/+;UAS-CTG(480)/+ flies; test: Lethality phenotype in pupae caused by expression of 480 CTG under 103Y-Gal4 (females born); assay type: in vivo, Drosophila; details: administered to larvae in the food; compared with p10
Method: The 120 vials that make up the chemical library were individually assayed on the lethality phenotype in pupae caused by the expression of 480 CTG under the control of 103Y-Gal4 at a concentration of 80 μM. […] Thus, for positions O1, O2, O3, O4, O5 and O6 of the hexapeptide, a total of six, three, six, four, two and seven active amino acids were obtained, respectively (FIG. 2A). In order to perform the deconvolution, 10 of these 28 amino acids were selected, on the basis of their degree of activity in the biological assay (FIG. 2A). Finally, of the possible combinations, 16 sequences were selected to perform the synthesis of the defined hexapeptides (FIG. 2B). The selection of these 16 peptides was based on redundancy criteria between the physical and chemical properties of active amino acids in similar positions.
At 250 μM, the activity of the peptide decreased, possibly due to a toxic effect of the peptide at higher concentrations.
In order to determine the contribution of each of the p10 residues to their activity on CTG(480), an alanine scanning experiment was performed. These experiments are based on substituting every amino acid of the peptide with alanine and keeping the rest. Alanine is a small amino acid and, in general, not very active; this is why it is used for this type of studies. Since each alanine substitution examines the contribution of an individual amino acid, this experiment makes it possible, on the one hand, to evaluate whether p10 is susceptible to optimisation (in the event that a substitution increases the efficacy of the molecule), or to determine which amino acids are important for its function (in the event that a substitution decreases the activity thereof). The sequence of p10 allows for 5 substitutions; for this reason, 5 new hexapeptides were synthesised which were assayed in relation to the lethality phenotype in 103Y-Gal4; UAS-CTG(480)/+ flies and commercial food.

2-AP-(CUG)23 RNA = test: 2-aminopurine fluorescence assay (hairpin opening); assay type: biochemical; details: for destructuration of CUG23 probe, comparative 2-aminopurine assay: 100 μM
Method: Measurements of the fluorescence emitted (Y-axis), measured as relative fluorescence units (RFU), by 2-aminopurine in a (CUG)23 RNA (1 μM) in the presence of MblZF (0.1 μM, 1 μM, 2 μM and 5 μM) (A) or p10 (0.1 μM, 1 μM, 2 μM, 5 μM and 100 μM) (B), relative to the fluorescence emitted by the free RNA. p10 caused a 2.9-increase in the fluorescence of 2-AP at 100 μM, which indicates a change towards single-stranded. This effect was not observed when incubating the RNA with DMSO, or with the alanine scanning peptides with sequences: ppyawa and payawe (C).
In order to confirm whether said changes cause a loss of the hairpin loop structure, an experiment was performed using an RNA composed of 23 CUG repeats, wherein a guanine had been substituted with its analogue 2-aminopurine (2-AP-(CUG)23). When 2-AP is in a single-stranded environment, it emits fluorescence at 375 nm. […] However, upon increasing the concentration of p10 to 100 μM (RNA:peptide 1:100), the 2AP-(CUG)23 RNA underwent a conformational change, from double-stranded to single-stranded, with a 2.9-fold increase in the fluorescence emission of the molecule (FIG. 28B). In order to confirm the specificity of this effect, the same experiment was performed, incubating the alanine scanning peptides (payawe and ppyawa) with the 2-AP-(CUG)23 RNA at the same concentration as p10 (100 μM).
As may be observed in FIG. 29, in this example we use the 2-aminopurine assay in order to assay 4 peptides (p11, p5, p12 and p15) in addition to p10, obtained from the deconvolution of the combinatorial peptide library explained in this invention. […] The concentration used in all cases is 100 μM.

[3] = test system: 103Y-Gal4/+;UAS-CTG(480)/+ flies; test: Lethality phenotype in pupae caused by expression of 480 CTG under 103Y-Gal4 (females born); assay type: in vivo, Drosophila; details: females born vs DMSO control
[4] = test system: Mhc-Gal4 UAS-CTG(480) flies; test: Endogenous expression of p10-derived peptides in the IFMs; assay type: in vivo, Drosophila; details: Mhc-Gal4 line at 25° C., recently ecloded adults
Method: (§1) The transgenic flies obtained were crossed with the GMR-Gal4 UAS-CTG(480)/CyO and Mhc-Gal4 UAS-CTG(480)/TM6b recombinant fly lines generated during this invention, which directed the expression of the CTG repeats in the eye and the muscle, respectively. As in the case of the sev-Gal4 UAS-CTG(480)/+ flies, the adult GMR-Gal4 UAS-CTG(480)/UAS-GFP flies presented a strong rough eye phenotype. […] However, the opposite phenomenon occurred at 25° C. and at 29° C. […] Given that changes in temperature affect the expression of the CTG(480) transgenes and peptides p17-p19 in a different manner, since the latter are inserted in different regions of the genome, there may be a relation between the quantity of peptide and of repeats that must be reached, whereafter p10 becomes toxic.
This confirms the effect of p10 on CTG(480). Once again, only those lines that carried the p18 and p19 transgenes modified the phenotype.

[5] = test system: GMR-Gal4 UAS-CTG(480) flies; test: Endogenous expression of p10-derived peptides (Gal4/UAS), rough eye phenotype; assay type: in vivo, Drosophila
From the text: Thus, three different transgenes were designed, with SEQ ID NO: 17-19 (p17-p19), which encoded different peptides, all based on sequence SEQ ID NO: 10 corresponding to p10 (FIG. 9), taking into consideration the codon usage bias in Drosophila (i.e. favouring the use of G, and in particular C, in the synonymous sites; Powell & Moriyama, 1997) and adding an initial Methionine, as well as three spacer Glycines, to sequence SEQ ID NO: 10. Moreover, upstream from the […] initiation codon, 21 nucleotides of the 5′UTR end of the act5C gene of Drosophila which included the Kozak sequence were added, in order to enhance the expression of the transgenes.
p17 contained the direct sequence of the peptide of SEQ ID NO: 10. As discussed above, the peptides in the hexapeptide chemical library are composed of D-amino acids. The D-forms (dextrogyre) of amino acids are stereoisomers of the L-forms (levogyres) and only L-amino acids are synthesised in the cells and incorporated into proteins. Consequently, if the arrangement of the lateral chains of p10 is important for the function thereof, the latter would be lost when p17 is synthesised by Drosophila from L-aa. For this reason, it was decided to generate construct p18, wherein the peptide sequence of SEQ ID NO: 10 was inverted, leading to a retro-inverse peptide (Chorev & Goodman, 1995; P. M. Fischer, 2003). At the time when these transgenes were generated, the smallest constructs described in the literature encoded peptides with more than 20 amino acids, which is more than twice the size of peptides p17 and p18 (which have only ten amino acids). For this reason, construct p19 was generated, which combined the constructs of peptides p17 and p18, leading to a peptide with 19 amino acids. The three constructs were microinjected in the precursors of the germinal line of Drosophila embryos, leading to 10 lines of transgenic flies for each transgene.
as §1

CUG60 RNA = test: Circular dichroism of CUG60 RNA; assay type: binding; details: RNA 1 μM, p10 0.1-20 μM, MblZF 1 and 1.5 μM, ppyawa 0.5 and 1 μM, payawe 1 μM
Method: However, this effect was not reverted when the RNA was incubated jointly with MblZF and p10, regardless of the order of addition (C).
In order to study possible changes in the secondary structure of RNA induced by p10, in the first place we performed a circular dichroism (CD) experiment, using an RNA with unlabelled CUG repeats (CUG60). The circular dichroism of nucleic acids is caused by the stacking of the bases that make up the sequence thereof. Consequently, when a molecule binds to RNA, affecting the structure thereof, a change is detected in its CD spectrum. […] When we incubated the RNA with increasing concentrations of the peptide of SEQ ID NO: 10 (0.1 μM, 0.5 μM, 1 μM, 10 μM and 20 μM), a similar effect was observed (FIG. 27B). During the readings, the RNA was kept in the cuvette inside the dichrograph at 10° C. Throughout the 3 hours of each experiment, it was possible for the RNA to have been degraded; this would explain the decrease in the intensity of the signal observed. In order to rule out this possibility, the CD spectrum of CUG60 RNA was measured at times 0 and 3 h, having kept the CUG60 RNA at 10° C. at all times.

## NC[C@@H]1O[C@H](O[C@H]2[C@@H](O)[C@H](O[C@@H]3[C@@H](O)[C@H](N)C[C@H](N)[C@H]3O[C@H]3O[C@H](CN)[C@@H](O)[C@H](O)[C@H]3N)O[C@@H]2CO)[C@H](N)[C@@H](O)[C@@H]1O [neomycin B]
[1]
  binding of MBNL1 to the CUG repeats: inhibited the binding of MBNL1

## CN1C(=Cc2cc[n+](C)c3ccccc23)Sc2ccccc21 [thiazole orange]
[1]
  binding of MBNL1 to the CUG repeats: inhibited the binding of MBNL1

## apyawe
FAM-(CUG)23 RNA
  significant binding to FAM-(CUG)23 RNA: None
[2]
  activity on lethality phenotype (number of females), alanine scanning: loss of activity

## p5: defined hexapeptide obtained following deconvolution of the D-amino acid combinatorial library ([dC][dQ][dY][dA][dQ][dE])
2-AP-(CUG)23 RNA
  destructuration of CUG23 probe, comparative 2-aminopurine assay: significant levels of specificity and efficacy
[3]; 25 μM
  Treated born/Control born: 2.0

## p15: defined hexapeptide obtained following deconvolution of the D-amino acid combinatorial library ([dP][dQ][dY][dT][dQ][dE])
2-AP-(CUG)23 RNA
  destructuration of CUG23 probe, comparative 2-aminopurine assay: significant levels of specificity and efficacy
[3]; 40 μM
  Treated born/Control born: 0.5

## p18: endogenously expressed ten amino acid peptide with the sequence of p10 inverted (retro-inverse) (MGGGEWAYPP; not fully specified)
[4]
  histological defects of the IFMs on co-expression with CTG(480): suppressed the histological defects of the IFMs
[5]; 19° C. and 21° C.
  rough eye phenotype on co-expression with CTG(480): visibly less rough
[5]; 25° C.
  eye phenotype on co-expression with CTG(480): enhanced the toxicity of the CTG repeats
[5]; 25° C. and 29° C., without CTG(480)
  phenotype of expression of peptide by itself: did not cause any phenotype
[5]; 29° C.
  offspring of crossing with GMR-Gal4 UAS-CTG(480)/CyO: did not produce offspring without the CyO balancer
[5]; in vivo
  transgenic lines assayed that modified the phenotype of GMR-Gal4 UAS-CTG(480) flies: all the lines

## payawe
2-AP-(CUG)23 RNA; peptide 100 μM, RNA 1 μM (1:100)
  increase in the fluorescence emission of 2-AP-(CUG)23: None of these peptides caused changes
FAM-(CUG)23 RNA
  significant binding to FAM-(CUG)23 RNA: None
[2]
  activity on lethality phenotype (number of females), alanine scanning: loss of activity
CUG60 RNA
  change of circular dichroism spectrum of CUG60: did not occur
CUG60 RNA; listed as p29.4
  change of circular dichroism spectrum of CUG60: did not change the RNA spectrum

## ppaawe
FAM-(CUG)23 RNA
  significant binding to FAM-(CUG)23 RNA: None
[2]
  activity on lethality phenotype (number of females), alanine scanning: loss of activity

## ppyaae
FAM-(CUG)23 RNA
  significant binding to FAM-(CUG)23 RNA: None
[2]
  activity on lethality phenotype (number of females), alanine scanning: loss of activity
